Key:
Format in all cases: in vivo
corn (Zea mays) = assay: Test E greenhouse herbicide test, pre- and postemergence
Outline: (§1)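 Herbicidal effect was judged by eye relative to untreated plants 14 to 21 d after spraying, using 0 for no effect and 100 for complete control. Preemergence sprays went onto freshly seeded silt loam; postemergence sprays onto 2–18 cm seedlings.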

[1] = system: crabgrass, Brazilian (Brazilian crabgrass, Digitaria horizontalis); assay: as above
Outline: as §1

[2] = system: crabgrass, large (large crabgrass, Digitaria sanguinalis); assay: as above; settings: Preemergence
Outline: as §1

[3] = system: dayflower (Virginia (VA) dayflower, Commelina virginica); assay: as above
Outline: as §1

[4] = system: foxtail, giant (giant foxtail, Setaria faberii); assay: as above; settings: Preemergence
Outline: as §1

[5] = system: foxtail, green (green foxtail, Setaria viridis); assay: as above; settings: Preemergence
Outline: as §1

[6] = system: johnsongrass (Sorghum halepense); assay: as above; settings: Preemergence
Outline: as §1

kochia (Kochia scoparia) = assay: as above
Outline: as §1

[7] = system: lambsquarters (Chenopodium album); assay: as above; settings: Preemergence
Outline: as §1

[8] = system: nutsedge, yellow (yellow nutsedge, Cyperus esculentus); assay: as above; settings: Preemergence
Outline: as §1

[9] = system: panicum, fall (fall panicum, Panicum dichotomiflorum); assay: as above
Outline: as §1

[10] = system: pigweed, palmer (palmer pigweed, Amaranthus palmeri); assay: as above
Outline: as §1

[11] = system: sandbur (southem sandbur, Cenchrus echinatus); assay: as above
Outline: as §1

soybean (Glycine max) = assay: as above
Outline: as §1

[12] = system: velvetleaf (Abutilon theophrasti); assay: as above; settings: Preemergence
Outline: as §1

[13] = system: waterhemp_RES1 (ALS & Triazine resistant common waterhemp, Amaranthus rudis); assay: Test E greenhouse herbicide test, postemergence
Outline: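 Greenhouse test, 14–21 d after postemergence treatment of 2–18 cm plants; percent control was assessed visually, 0–100, against untreated plants.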

[14] = 62 g ai/ha, Postemergence, scale 0 to 100 (0 no effect, 100 complete control)
[15] = 62 g ai/ha, Preemergence, scale 0 to 100 (0 no effect, 100 complete control)
[16] = 125 g ai/ha, Postemergence, scale 0 to 100 (0 no effect, 100 complete control)
[17] = 125 g ai/ha, Preemergence, scale 0 to 100 (0 no effect, 100 complete control)
[18] = 250 g ai/ha, Postemergence, scale 0 to 100 (0 no effect, 100 complete control)
[19] = Postemergence, 31 g ai/ha, visual, scale 0 no effect to 100 complete control
[20] = Preemergence, 31 g ai/ha, scale 0 to 100, 0 no effect, 100 complete control
[21] = Preemergence, 250 g ai/ha, visual, scale 0 no effect to 100 complete control
[22] = 62 g ai/ha, scale 0 to 100 (0 no effect, 100 complete control)
[23] = 125 g ai/ha, scale 0 to 100 (0 no effect, 100 complete control)
[24] = 31 g ai/ha, scale 0 to 100, 0 no effect, 100 complete control
[25] = 250 g ai/ha, visual, scale 0 no effect to 100 complete control

Compound: Cc1nn(C)c(=O)c(-c2ccc(Br)c3ccccc23)c1O [Compound 75]
- Plant response rating, Corn (corn (Zea mays); [14]): 0
- Plant response rating, Corn (corn (Zea mays); [15]): 0
- Plant response rating, Corn (corn (Zea mays); [16]): 0
- Plant response rating, Corn (corn (Zea mays); [17]): 0
- Plant response rating, Corn (corn (Zea mays); [18]): 0
- Plant response rating, Corn (corn (Zea mays); [19]): 0
- Plant response rating, Corn (corn (Zea mays); [20]): 0
- Plant response rating, Corn (corn (Zea mays); [21]): 35
- Plant response rating, Crabgrass, Brazil [1, 14]: 40
- Plant response rating, Crabgrass, Brazil [1, 15]: 20
- Plant response rating, Crabgrass, Brazil [1, 16]: 50
- Plant response rating, Crabgrass, Brazil [1, 17]: 90
- Plant response rating, Crabgrass, Brazil [1, 18]: 50
- Plant response rating, Crabgrass, Brazil [1, 19]: 40
- Plant response rating, Crabgrass, Brazil [1, 20]: 0
- Plant response rating, Crabgrass, Brazil [1, 21]: 90
- Plant response rating, Crabgrass, Large [2, 22]: 0
- Plant response rating, Crabgrass, Large [2, 23]: 0
- Plant response rating, Crabgrass, Large [2, 24]: 0
- Plant response rating, Crabgrass, Large [2, 25]: 30
- Plant response rating, Dayflower, VA [3, 14]: 50
- Plant response rating, Dayflower, VA [3, 15]: 10
- Plant response rating, Dayflower, VA [3, 16]: 50
- Plant response rating, Dayflower, VA [3, 17]: 60
- Plant response rating, Dayflower, VA [3, 18]: 65
- Plant response rating, Dayflower, VA [3, 19]: 30
- Plant response rating, Dayflower, VA [3, 20]: 10
- Plant response rating, Dayflower, VA [3, 21]: 75
- Plant response rating, Foxtail, Giant [4, 22]: 5
- Plant response rating, Foxtail, Giant [4, 23]: 35
- Plant response rating, Foxtail, Giant [4, 24]: 0
- Plant response rating, Foxtail, Giant [4, 25]: 75
- Plant response rating, Foxtail, Green [5, 22]: 0
- Plant response rating, Foxtail, Green [5, 23]: 0
- Plant response rating, Foxtail, Green [5, 24]: 0
- Plant response rating, Foxtail, Green [5, 25]: 90
- Plant response rating, Johnsongrass [6, 22]: 0
- Plant response rating, Johnsongrass [6, 23]: 10
- Plant response rating, Johnsongrass [6, 24]: 0
- Plant response rating, Johnsongrass [6, 25]: 15
- Plant response rating, Kochia (kochia (Kochia scoparia); [14]): 98
- Plant response rating, Kochia (kochia (Kochia scoparia); [15]): 100
- Plant response rating, Kochia (kochia (Kochia scoparia); [16]): 100
- Plant response rating, Kochia (kochia (Kochia scoparia); [17]): 100
- Plant response rating, Kochia (kochia (Kochia scoparia); [18]): 100
- Plant response rating, Kochia (kochia (Kochia scoparia); [19]): 90
- Plant response rating, Kochia (kochia (Kochia scoparia); [20]): 98
- Plant response rating, Kochia (kochia (Kochia scoparia); [21]): 100
- Plant response rating, Lambsquarters [7, 22]: 100
- Plant response rating, Lambsquarters [7, 23]: 100
- Plant response rating, Lambsquarters [7, 24]: 100
- Plant response rating, Lambsquarters [7, 25]: 100
- Plant response rating, Nutsedge, Yellow [8, 22]: 10
- Plant response rating, Nutsedge, Yellow [8, 23]: 70
- Plant response rating, Nutsedge, Yellow [8, 24]: 0
- Plant response rating, Nutsedge, Yellow [8, 25]: 65
- Plant response rating, Panicum, Fall [9, 14]: 40
- Plant response rating, Panicum, Fall [9, 15]: 50
- Plant response rating, Panicum, Fall [9, 16]: 50
- Plant response rating, Panicum, Fall [9, 17]: 80
- Plant response rating, Panicum, Fall [9, 18]: 60
- Plant response rating, Panicum, Fall [9, 19]: 50
- Plant response rating, Panicum, Fall [9, 20]: 10
- Plant response rating, Panicum, Fall [9, 21]: 90
- Plant response rating, Pigweed, Palmer [10, 14]: 70
- Plant response rating, Pigweed, Palmer [10, 15]: 85
- Plant response rating, Pigweed, Palmer [10, 16]: 100
- Plant response rating, Pigweed, Palmer [10, 17]: 50
- Plant response rating, Pigweed, Palmer [10, 18]: 100
- Plant response rating, Pigweed, Palmer [10, 19]: 70
- Plant response rating, Pigweed, Palmer [10, 20]: 30
- Plant response rating, Pigweed, Palmer [10, 21]: 100
- Plant response rating, Sandbur [11, 14]: 20
- Plant response rating, Sandbur [11, 15]: 10
- Plant response rating, Sandbur [11, 16]: 20
- Plant response rating, Sandbur [11, 17]: 40
- Plant response rating, Sandbur [11, 18]: 30
- Plant response rating, Sandbur [11, 19]: 10
- Plant response rating, Sandbur [11, 20]: 0
- Plant response rating, Sandbur [11, 21]: 70
- Plant response rating, Soybean (soybean (Glycine max); [14]): 70
- Plant response rating, Soybean (soybean (Glycine max); [15]): 35
- Plant response rating, Soybean (soybean (Glycine max); [16]): 70
- Plant response rating, Soybean (soybean (Glycine max); [17]): 40
- Plant response rating, Soybean (soybean (Glycine max); [18]): 75
- Plant response rating, Soybean (soybean (Glycine max); [19]): 70
- Plant response rating, Soybean (soybean (Glycine max); [20]): 0
- Plant response rating, Soybean (soybean (Glycine max); [21]): 70
- Plant response rating, Velvetleaf [12, 22]: 85
- Plant response rating, Velvetleaf [12, 23]: 100
- Plant response rating, Velvetleaf [12, 24]: 35
- Plant response rating, Velvetleaf [12, 25]: 98
- Plant response rating, Waterhemp_RES1 ([13]; 31 g ai/ha, visual, scale 0 no effect to 100 complete control): 90
- Plant response rating, Waterhemp_RES1 [13, 22]: 90
- Plant response rating, Waterhemp_RES1 [13, 23]: 95
- Plant response rating, Waterhemp_RES1 ([13]; 250 g ai/ha, scale 0 to 100 (0 no effect, 100 complete control)): 90

— patent publication US10597388B2, “Pyridazinone herbicides” (FMC CORPORATION, priority 2014, dated 2020)
